Patent US6121274A, “Dihydrobenzofurane” (Byk Gulden Lomberg Chemische Fabrik GmbH, priority 1994, dated 2000)

System: PDE IV
Assay: Inhibition of PDE IV activity (Bauer and Schwabe method adapted to microtiter plates)
Type: biochemical
Settings: Table A; two-step PDE / 5'-nucleotidase assay, ion-exchange separation

SMILES	Inhibition of PDE IV activity, -log IC50
COc1ccc(C(=O)Nc2c(Cl)cncc2Cl)c2c1OC(C)(C)C2 [Compound 1, 2,3-Dihydro-2,2-dimethyl-7-methoxybenzofuran-4-carboxylic acid-N-3,5-dichloro-4-pyridylamide]	8.47
COc1ccc(C(=O)Nc2c(Cl)cncc2Cl)c2c1OC1(CCCCC1)C2 [Compound 4, 2,3-dihydro-7-methoxybenzofuran-2-spiro-1'-cyclohexane-4-carboxylic acid-N-3,5-dichloro-4-pyridylamide]	9.09
CCC1(CC)Cc2c(C(=O)Nc3c(Cl)cncc3Cl)ccc(OC)c2O1 [Compound 6, 2,2-Diethyl-2,3-dihydro-7-methoxybenzofuran-4-carboxylic acid-N-3,5-dichloro-4-pyridylamide]	8.63
COc1ccc(C(=O)Nc2c(Cl)cccc2Cl)c2c1OC1(CCCC1)C2 [Compound 7, 2,3-Dihydro-7-methoxybenzofuran-2-spiro-1'-cyclopentane-4-carboxylic acid-2,6-dichloroanilide]	8.57
COc1ccc(C(=O)Nc2c(Cl)cncc2Cl)c2c1OC1(CCOCC1)C2 [Compound 5, 2,3-Dihydro-7-methoxybenzofuran-2-spiro-1'-(4'-oxacyclohexane)-4-carboxylic acid-N-3,5-dichloro-4-pyridylamide]	8.57
O=C(Nc1c(Cl)cncc1Cl)c1ccc(OC(F)F)c2c1CC1(CCCC1)O2 [Compound 3, 7-Difluoromethoxy-2,3-dihydrobenzofuran-2-spiro-1'-cyclopentane-4-carboxylic acid-N-3,5-dichloro-4-pyridylamide]	9.87
COc1ccc(C(=O)Nc2c(Cl)cncc2Cl)c2c1OC1(CCCC1)C2 [Compound 2, 2,3-Dihydro-7-methoxybenzofuran-2-spiro-1'-cyclopentan-4-carboxylic acid-N-3,5-dichloro-4-pyridylamide]	9.42
COc1ccc(C(=O)Nc2c(F)cccc2F)c2c1OC1(CCCC1)C2 [Compound 8, 2,3-Dihydro-7-methoxybenzofuran-2-spiro-1'-cyclopentane-4-carboxylic acid-2,6-difluoroanilide]	8.42
